According to patent publication US12187728B2 (Raze Therapeutics, Inc., priority 2015, dated 2025):
Values belong to the molecule of their own block, whether it stands above or below them.

Molecular target: T1, Human MTHFD2 (Homo sapiens, UniProt P13995)
T1 construct: residues 36-350 in Uniport ID P13995; His6 (N); made in house; host or cells: E. coli
T1 sequence (P13995 36-350): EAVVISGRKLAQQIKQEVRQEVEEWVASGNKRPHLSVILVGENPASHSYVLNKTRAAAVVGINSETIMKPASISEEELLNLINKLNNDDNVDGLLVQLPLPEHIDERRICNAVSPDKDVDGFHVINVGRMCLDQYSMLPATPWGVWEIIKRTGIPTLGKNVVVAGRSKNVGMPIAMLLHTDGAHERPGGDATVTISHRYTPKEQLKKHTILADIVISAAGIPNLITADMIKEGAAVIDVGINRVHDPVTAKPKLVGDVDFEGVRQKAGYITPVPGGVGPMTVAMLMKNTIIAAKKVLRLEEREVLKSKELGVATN
Assay: MTHFD2 Activity Assay (dehydrogenase activity, diaphorase/resazurin coupled fluorescence)
Format: biochemical
Conditions: inhibitory activity (IC50 and/or binding constant); 0.2 nM MTHFD2, 11 concentrations
Method in brief: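 Steps: compound + 0.2 nM enzyme, 15 min, pH 8.0 Hepes buffer; add 70 μM CH2-THF, 1 mM NAD+, 100 μM resazurin, diaphorase; 30 min; quench with EDTA; read fluorescence. Data normalized to DMSO (100%) and no-enzyme (0%) wells.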

Compound: Cn1c(C(N)=O)nc2c1c(=O)n(Cc1ccc(Cl)c(Cl)c1)c(=O)n2C [Example 244, 1-(3,4-dichlorobenzyl)-3,7-dimethyl-2,6-dioxo-2,3,6,7-tetrahydro-1H-purine-8-carboxamide]
IC50: 1000 to 5000 nM

Compound: Cn1c(NC2CCNC(=O)C2)nc2c1c(=O)n(Cc1ccc(Cl)c(Cl)c1)c(=O)n2C (racemic) [Example 211, (±)-1-(3,4-dichlorobenzyl)-3,7-dimethyl-8-(2-oxopiperidin-4-ylamino)-1H-purine-2,6(3H,7H)-dione]
IC50: 10 to 1000 nM

Compound: Cn1c(NCCCO)nc2ncn(Cc3ccc(Cl)c(Cl)c3)c(=O)c21 [Example 167, 1-[(3,4-dichlorophenyl)methyl]-8-[(3-hydroxypropyl)amino]-7-methyl-6,7-dihydro-1H-purin-6-one]
IC50: > 10000 nM

Compound: Cn1c(Nc2ccc(Cl)nc2)nc2c1c(=O)n(Cc1cc3c(Cl)cccc3[nH]1)c(=O)n2C [Example 381, 1-((4-chloro-1H-indol-2-yl)methyl)-8-(6-chloropyridin-3-ylamino)-3,7-dimethyl-1H-purine-2,6(3H,7H)-dione]
IC50: 10 to 1000 nM

Compound: Cn1c(N[C@@H]2CCCOC2)nc2c1c(=O)n(Cc1ccc(Cl)c(Cl)c1)c(=O)n2C [Example 47, 1-[(3,4-dichlorophenyl)methyl]-3,7-dimethyl-8-{[(3R)-oxan-3-yl]amino}-2,3,6,7-tetrahydro-1H-purine-2,6-dione]
IC50: 10 to 1000 nM

Compound: Cn1c(Nc2ccncc2)nc2c1c(=O)n(Cc1cc3cnccc3[nH]1)c(=O)n2C [Example 460, 1-((1H-pyrrolo[3,2-c]pyridin-2-yl)methyl)-3,7-dimethyl-8-(pyridin-4-ylamino)-1H-purine-2,6(3H,7H)-dione]
IC50: 10 to 1000 nM

Compound: Cn1c(Cn2c(=O)c3c(nc(Nc4ccncn4)n3C)n(C)c2=O)cc2cc(Cl)ccc21 [Example 204, 1-((5-chloro-1-methyl-1H-indol-2-yl)methyl)-3,7-dimethyl-8-(pyrimidin-4-ylamino)-1H-purine-2,6(3H,7H)-dione]
IC50: 10 to 1000 nM

Compound: Cn1c(Nc2ccc(C(=O)O)cc2)nc2c1c(=O)n(Cc1cc3ccccc3[nH]1)c(=O)n2C [Example 297, 4-[[1-(1H-indol-2-ylmethyl)-3,7-dimethyl-2,6-dioxo-purin-8-yl]amino]benzoic acid]
IC50: 10 to 1000 nM

Compound: Cn1c(Nc2cccc(CC(=O)O)c2)nc2c1c(=O)n(Cc1ccc(Cl)c(Cl)c1)c(=O)n2C [Example 287, 2-(3-((1-(3,4-dichlorobenzyl)-3,7-dimethyl-2,6-dioxo-2,3,6,7-tetrahydro-1H-purin-8-yl)amino)phenyl)acetic acid]
IC50: 10 to 1000 nM

Compound: Cn1c(NC2CC(F)(F)C2)nc2c1c(=O)n(Cc1ccc(Cl)c(Cl)c1)c(=O)n2C [Example 112, 1-(3,4-dichlorobenzyl)-8-(3,3-difluorocyclobutylamino)-3,7-dimethyl-1H-purine-2,6(3H,7H)-dione]
IC50: 1000 to 5000 nM

Compound: Cn1c(NCCCO)nc2c1c(=O)n(Cc1ccc(C(F)(F)F)cc1)c(=O)n2C [Example 56, 8-[(3-hydroxypropyl)amino]-3,7-dimethyl-1-{[4-(trifluoromethyl)phenyl]methyl}-2,3,6,7-tetrahydro-1H-purine-2,6-dione]
IC50: 5000 to 10000 nM

Compound: Cn1c(N[C@H]2C[C@H](CO)C2)nc2c1c(=O)n(Cc1ccc(Cl)c(Cl)c1)c(=O)n2C [Example 268]
IC50: 10 to 1000 nM

Second part, the molecule after the results:

IC50: > 10000 nM
Compound: Cn1c(N[C@H]2CC[C@@H](O)C2)nc2c1c(=O)n(Cc1cc(-c3ccccc3)n[nH]1)c(=O)n2C (racemic) [Example 180, (±)-8-((cis)-3-hydroxycyclopentylamino)-3,7-dimethyl-1-((3-phenyl-1H-pyrazol-5-yl)methyl)-1H-purine-2,6(3H,7H)-dione]

IC50: 10 to 1000 nM
Compound: Cn1c(Nc2ccc(CC(=O)O)cc2)nc2c1c(=O)n(Cc1cc3c(Cl)cccc3[nH]1)c(=O)n2C [Example 345, 2-[4-[[1-[(4-chloro-1H-indol-2-yl)methyl]-3,7-dimethyl-2,6-dioxo-purin-8-yl]amino]phenyl]acetic acid]

IC50: 10 to 1000 nM
Compound: Cn1c(NCC(F)(F)F)nc2c1c(=O)n(Cc1ccc(Cl)c(Cl)c1)c(=O)n2C [Example 278, 1-[(3,4-dichlorophenyl)methyl]-3,7-dimethyl-8-(2,2,2-trifluoroethylamino)purine-2,6-dione]

IC50: 10 to 1000 nM
Compound: Cn1c(Nc2ccnc(CCC(N)=O)n2)nc2c1c(=O)n(Cc1cc3c(Cl)cccc3[nH]1)c(=O)n2C [Example 378, 3-(4-(1-((4-chloro-1H-indol-2-yl)methyl)-3,7-dimethyl-2,6-dioxo-2,3,6,7-tetrahydro-1H-purin-8-ylamino)pyrimidin-2-yl)propanamide]

IC50: 1000 to 5000 nM
Compound: Cn1c(NCc2cn[nH]c2)nc2c1c(=O)n(Cc1ccc(Cl)c(Cl)c1)c(=O)n2C [Example 42, 1-[(3,4-dichlorophenyl)methyl]-3,7-dimethyl-8-[(1H-pyrazol-4-ylmethyl)amino]-2,3,6,7-tetrahydro-1H-purine-2,6-dione]

IC50: 10 to 1000 nM
Compound: Cn1c(Cn2c(=O)c3c(nc(-n4ncnc4N)n3C)n(C)c2=O)cc2cc(Cl)ccc21 [Example 230, 8-(5-amino-1H-1,2,4-triazol-1-yl)-1-((5-chloro-1-methyl-1H-indol-2-yl)methyl)-3,7-dimethyl-1H-purine-2,6(3H,7H)-dione]

IC50: 1000 to 5000 nM
Compound: COc1ccc2c(c1)cc(Cn1c(=O)c3c(nc(N[C@H]4CC[C@@H](O)C4)n3C)n(C)c1=O)n2C [Example 188, 8-((1S,3R)-3-hydroxycyclopentylamino)-1-((5-methoxy-1-methyl-1H-indol-2-yl)methyl)-3,7-dimethyl-1H-purine-2,6(3H,7H)-dione]

IC50: 10 to 1000 nM
Compound: Cn1c(Nc2ccnc([C@@H]3C[C@H]3C(=O)O)c2)nc2c1c(=O)n(Cc1cc3c(Cl)cccc3[nH]1)c(=O)n2C (single isomer, unassigned) [Example 322, (1R,2R)-2-(4-((1-((4-chloro-1H-indol-2-yl)methyl)-3,7-dimethyl-2,6-dioxo-2,3,6,7-tetrahydro-1H-purin-8-yl)amino)pyridin-2-yl)cyclopropanecarboxylic acid or (1S,2S)-2-(4-((1-((4-chloro-1H-indol-2-yl)methyl)-3,7-dimethyl-2,6-dioxo-2,3,6,7-tetrahydro-1H-purin-8-yl)amino)pyridin-2-yl)cyclopropanecarboxylic acid]

IC50: 1000 to 5000 nM
Compound: Cn1c(N[C@@H]2CCCNC2=O)nc2c1c(=O)n(Cc1cc3ccccc3[nH]1)c(=O)n2C [Example 221, (R)-1-((1H-indol-2-yl)methyl)-3,7-dimethyl-8-(2-oxopiperidin-3-ylamino)-1H-purine-2,6(3H,7H)-dione]

IC50: 10 to 1000 nM
Compound: Cn1c(N[C@@H]2CCC[C@H](C(=O)O)C2)nc2c1c(=O)n(Cc1ccc(Cl)c(Cl)c1)c(=O)n2C (single isomer, unassigned) [Example 184, (1S,3R)-3-(1-(3,4-dichlorobenzyl)-3,7-dimethyl-2,6-dioxo-2,3,6,7-tetrahydro-1H-purin-8-ylamino)cyclohexanecarboxylic acid or (1R,3S)-3-(1-(3,4-dichlorobenzyl)-3,7-dimethyl-2,6-dioxo-2,3,6,7-tetrahydro-1H-purin-8-ylamino)cyclohexanecarboxylic acid]

IC50: 10 to 1000 nM
Compound: Cn1c(Nc2ccc(N3CCNCC3)cn2)nc2c1c(=O)n(Cc1cc3c(Cl)cccc3[nH]1)c(=O)n2C [Example 392, 1-[(4-chloro-1H-indol-2-yl)methyl]-3,7-dimethyl-8-[(5-piperazin-1-yl-2-pyridyl)amino]purine-2,6-dione]
